Source: patent publication US20250275995A1, “NICOTINAMIDE RIBOSIDE DOSAGE REGIMEN FOR TREATING PARKINSON'S DISEASE” (VESTLANDETS INNOVASJONSSELSKAP AS (VIS), priority 2022, published 2025)
“And” between values parts separate entries of the source, which are not always exact repeats. Identical values can stand only once.

Legend:
individuals with PD = experiment: NR-SAFE: vital signs, body metrics, ECG; assay type: in vivo, human
Protocol: (§1) At screening for trial entry, candidates underwent physical and neurological examination. Enrolled participants were assessed by physical visits by a movement disorder specialist at baseline (visit 1, V1), day 7 (V4), day 14 (V5), day 21 (V6) and day 28 (V7). At baseline and day 28 participants underwent additional assessment with the Movement Disorder Society Unified Parkinson's disease Rating Scale section I-IV (MDS-UPDRS). At all physical visits an electrocardiogram (ECG), vital parameters (blood pressure, pulse, weight, height) and blood samples were obtained. Additional blood samples were taken on day 3 (V2) and day 5 (V3) to assess safety. The participants were interviewed by telephone consultation by a study nurse on day 3 and day 35 to screen for additional adverse events. Participants were instructed to take their anti-Parkinson drugs as they normally would and no changes were made to anti-Parkinson drug treatment during the trial. Adverse events (AEs) were recorded by the investigating physician. These were then classified by severity according to the Common Terminology Criteria for Adverse Events v5.0 (CTCAE)^13 as either mild (1), moderate (2), severe (3), life-threatening (4) or death (5). The AE relation to the study drug was scored as unrelated (1), unlikely (2), possible (3), probable (4) or definitely (5). 13 Freites-Martinez, A., Santana, N., Arias-Santiago, S. & Viera, A. Using the Common Terminology Criteria for Adverse Events (CTCAE—Version 5.0) to Evaluate the Severity of Adverse Events of Anticancer Therapies. Actas Dermosifiliogr (Engl Ed) 112, 90-92 (2021).

Parkinson's Disease (PD) = experiment: NR-SAFE: MDS-UPDRS and Hoehn and Yahr scores; assay type: in vivo, human
Protocol: as §1

NAD metabolome = experiment: NR-SAFE: LC-MS metabolomics of whole blood and urine; assay type: in vivo, human
Protocol: Sample analysis was carried out by MS-Omics (Vedbok, Denmark) as follows: Polar metabolite profiling of whole blood and urine was performed using a Thermo Scientific Vanquish LC coupled to Thermo Q Exactive HF MS. An electrospray ionization interface was used as ionization source. Analysis was performed in negative and positive ionization mode. The UPLC was performed using a slightly modified version of the protocol described by Hsiao et al. 2018^14. Peak areas were extracted using Compound Discoverer 3.3 (Thermo Scientific). 14 Hsiao, J. J., Potter, O. G., Chu, T. W. & Yin, H. Improved LC/MS Methods for the Analysis of Metal-Sensitive Analytes Using Medronic Acid as a Mobile Phase Additive. Anal Chem 90, 9457-9464 (2018).
Semi-polar metabolite analysis of whole blood was carried out using a Thermo Scientific Vanquish LC coupled to Orbitrap Exploris 240 MS, Thermo Fisher Scientific. An electrospray ionization interface was used as ionization source. Analysis was performed in positive and negative ionization mode under polarity switching. The UPLC was performed using a slightly modified version of the protocol described by Doneanu et al., 2011^15. Peak areas were extracted using Compound Discoverer 3.3 (Thermo Scientific). 15 Doneanu, C. E. UPLC/MS Monitoring of Water-Soluble Vitamin Bs in Cell Culture Media in Minutes (Application note). https://www.waters.com/waters/library.htm?locale=en US&lid=134636355 (2011).
Identification of compounds for both methods was performed at four levels; Level 1: identification by retention times (compared against in-house authentic standards), accurate mass (with an accepted deviation of 3 ppm), and MS/MS spectra; Level 2a: identification by retention times (compared against in-house authentic standards), accurate mass (with an accepted deviation of 3 ppm). Level 2b: identification by accurate mass (with an accepted deviation of 3 ppm), and MS/MS spectra, Level 3: identification by accurate mass alone (with an accepted deviation of 3 ppm).

[1] = NR-SAFE: clinical laboratory values from blood samples (serum); assay type: in vivo, human
Protocol: Analysis of clinical laboratory values from blood samples was performed by the Department of Medical Biochemistry and Pharmacology (MBF) at Haukeland University Hospital, Bergen, Norway.

blood NAD levels = conditions: cited from earlier work
[2] = NR group, 3000 mg daily, 4 weeks
[3] = V1 (baseline), NR 3000 mg daily group, ±sd
[4] = V7 (day 28), NR 3000 mg daily, ±sd
[5] = LC-MS, V1 to V7, 3000 mg NR daily
[6] = LC-MS, V1 to V7, NR group, 3000 mg NR daily

NC(=O)c1ccc[n+]([C@@H]2O[C@H](CO)[C@@H](O)[C@H]2O)c1 [NR, nicotinamide riboside]
Electrocardiography (ECG) (individuals with PD; NR 3000 mg daily, 4 weeks): no changes of clinical significance | changes in systolic or diastolic blood pressure, pulse or weight between visit 1 and visit 7 (individuals with PD; NR 3000 mg daily, 4 weeks): No significant changes in systolic or diastolic blood pressure, pulse or weight | patients who developed asymptomatic bradycardia (individuals with PD; [2]): Two | heart rate of patients with asymptomatic bradycardia (individuals with PD; NR group, 3000 mg daily, individual patients): 58 beats/min and 46 beats/min | Diastolic blood pressure (individuals with PD; [3]): 74.7 ± 8.49 mmHg | Pulse (individuals with PD; [3]): 64.2 ± 14.67 min⁻¹ | Systolic blood pressure (individuals with PD; [3]): 122.1 ± 12.53 mmHg | Weight (individuals with PD; [3]): 79.38 ± 11.92 kg | Diastolic blood pressure (individuals with PD; [4]): 76.2 ± 6.81 mmHg | Pulse (individuals with PD; [4]): 61.1 ± 12.95 min⁻¹ | Systolic blood pressure (individuals with PD; [4]): 122.2 ± 7.49 mmHg | Weight (individuals with PD; [4]): 79.38 ± 11.79 kg | Diastolic blood pressure, Δ (individuals with PD; Δ=V7−V1, NR 3000 mg daily, ±sd): 1.5 ± 8.31 mmHg | Pulse, Δ (individuals with PD; Δ=V7−V1, NR 3000 mg daily, ±sd): -3.1 ± 9.48 min⁻¹ | Systolic blood pressure, Δ (individuals with PD; Δ=V7−V1, NR 3000 mg daily, ±sd): 0.1 ± 8.29 mmHg | Weight, Δ (individuals with PD; Δ=V7−V1, NR 3000 mg daily, ±sd): 0 ± 0.58 kg | clinical symptoms of PD, measured by MDS-UPDRS (Parkinson's Disease (PD); NR 3000 mg daily, 4 weeks): significantly improved clinical symptoms of PD | Hoehn & Yahr score (Parkinson's Disease (PD); [3]): 2 ± 0.66 | MDS-UPDRS Part I (Parkinson's Disease (PD); [3]): 7.8 ± 5.37 | MDS-UPDRS Part II (Parkinson's Disease (PD); [3]): 9.4 ± 6.25 | MDS-UPDRS Part III (Parkinson's Disease (PD); [3]): 29.7±12.85 | MDS-UPDRS Part IV (Parkinson's Disease (PD); [3]): 4.1 ± 4.88 | Total MDS-UPDRS (Parkinson's Disease (PD); [3]): 51±21.28 | total MDS-UPDRS, subgroup (Parkinson's Disease (PD); V1, subgroup of 8 participants with similar intervals since last levodopa dose, NR 3000 mg daily): 46.62±17.76 | Hoehn & Yahr score (Parkinson's Disease (PD); [4]): 2.1 ± 0.31 | MDS-UPDRS Part I (Parkinson's Disease (PD); [4]): 5.6 ± 5.01 | MDS-UPDRS Part II (Parkinson's Disease (PD); [4]): 8.8 ± 7.58 | MDS-UPDRS Part III (Parkinson's Disease (PD); [4]): 22.7±7.55 | MDS-UPDRS Part IV (Parkinson's Disease (PD); [4]): 3.2 ± 3.15 | Total MDS-UPDRS (Parkinson's Disease (PD); [4]): 40.3±17.1 | total MDS-UPDRS, subgroup (Parkinson's Disease (PD); V7, subgroup of 8 participants with similar intervals since last levodopa dose, NR 3000 mg daily): 35.75±11.74 | total MDS-UPDRS mean change, subgroup (Parkinson's Disease (PD); V7−V1, subgroup of 8 participants with similar intervals since last levodopa dose, NR 3000 mg daily): −10.87±11.15 | Hoehn & Yahr score, Δ (Parkinson's Disease (PD); Δ=V7−V1, NR 3000 mg daily, ±sd): 0.1 ± 0.56 | MDS-UPDRS Part I, Δ (Parkinson's Disease (PD); Δ=V7−V1, NR 3000 mg daily, ±sd): −2.2 ± 3.52 | MDS-UPDRS Part II, Δ (Parkinson's Disease (PD); Δ=V7−V1, NR 3000 mg daily, ±sd): −0.6 ± 2.36 | MDS-UPDRS Part III, Δ (Parkinson's Disease (PD); Δ=V7−V1, NR 3000 mg daily, ±sd): −7 ± 7.98 | MDS-UPDRS Part IV, Δ (Parkinson's Disease (PD); Δ=V7−V1, NR 3000 mg daily, ±sd): −0.9 ± 2.60 | Total MDS-UPDRS, Δ (mean change) (Parkinson's Disease (PD); Δ=V7−V1, NR 3000 mg daily, ±sd): −10.7±9.94 | urine NAD-related metabolites (NAR, Nam, Me-Nam, Me-2-PY, Nam N-oxide) (NAD metabolome; [5]): increase in several NAD-related metabolites | whole blood ADP-ribose (ADPR) (NAD metabolome; [5]): increase in NAD-derived signaling molecules such as ADP-ribose (ADPR) | whole blood ATP, GTP, ADP, AMP, adenosine and GDP (NAD metabolome; [5]): unchanged | whole blood Nam, Nam N-oxide, Me-Nam, Me-2-PY (NAD metabolome; [5]): increased as well | whole blood nicotinamide mononucleotide (NMN) (NAD metabolome; [5]): elevated levels | whole blood nicotinic acid adenine dinucleotide (NAAD) (NAD metabolome; [5]): elevated | NR itself in urine (NAD metabolome; [6]): did not change significantly | NR itself in whole blood (NAD metabolome; [6]): did not increase | whole blood HCy, SAM, SAH, SAM/SAH ratio, methionine (NAD metabolome; LC-MS, V1 vs V7, 3000 mg NR daily): did not detect a change | depletion of the methyl-group pool (NAD metabolome; NR 3000 mg for 4 weeks): does not cause depletion of the methyl-group pool | whole blood NAD^+ and NADP^+ levels (NAD metabolome; targeted LC-MS, V1 to V7, 3000 mg NR daily): significant increase in whole blood NAD^+ and NADP^+ levels | whole blood homocysteine (HCy) (NAD metabolome; targeted metabolomics, V1 vs V7, 3000 mg NR daily): did not show any HCy elevation | whole blood methionine levels (NAD metabolome; untargeted metabolomics, 3000 mg NR daily): unaffected | whole blood betaine (NAD metabolome; untargeted metabolomics, NR group, 3000 mg NR daily): decreased slightly | clinical symptoms related to the observed HCy increase ([1]; NR 3000 mg daily, 4 weeks): No participants developed any clinical symptoms | increase in triglycerides, total cholesterol and LDL ([1]; NR 3000 mg daily, 4 weeks): no such effects | serum folic acid, methylmalonic acid and vitamin B12 ([1]; NR 3000 mg daily, 4 weeks): remained unchanged | serum triglyceride levels [1, 2]: nominal trend for a reduction in serum triglyceride levels | change in serum HCy at second visit ([1]; V2, day 3 of treatment, vs baseline, NR 3000 mg daily): +2.29±1.72 μmol/L | change in serum HCy after second visit until end of study ([1]; V2 to V7, NR 3000 mg daily): -0.63 ± 1.76 µmol/L | serum HCy levels relative to normal range ([1]; most participants, NR 3000 mg daily): remained within normal range | change in serum homocysteine levels, last visit vs baseline ([1]; Δ V7−V1, NR 3000 mg daily): +1.66±0.63 μmol/L | blood NAD levels in a 24h-period after intake (blood NAD levels; 1000 mg NR after increasing NR doses twice daily for nine days): stably increased | blood NAD levels 23.8 h after intake (blood NAD levels; 1000 mg NR, single subject): decreased, but not yet to baseline | time of peak blood NAD levels after intake (blood NAD levels; 1000 mg NR, single subject): 7.7 h | increase of blood NAD^+ levels (blood NAD levels; 1000 mg or 2000 mg NR daily, reported studies): 1.37-2.8 fold
